# Results from patent publication US9156796B2, “Benzoimidazole-carboxylic acid amide derivatives as APJ receptor modulators” (SANOFI, priority 2013, dated 2015).
# Molecular target: T1, human apelin receptor (Homo sapiens, UniProt P35414)
# T1 construct: expressed in transfected cells
# T1 sequence (P35414 1-380): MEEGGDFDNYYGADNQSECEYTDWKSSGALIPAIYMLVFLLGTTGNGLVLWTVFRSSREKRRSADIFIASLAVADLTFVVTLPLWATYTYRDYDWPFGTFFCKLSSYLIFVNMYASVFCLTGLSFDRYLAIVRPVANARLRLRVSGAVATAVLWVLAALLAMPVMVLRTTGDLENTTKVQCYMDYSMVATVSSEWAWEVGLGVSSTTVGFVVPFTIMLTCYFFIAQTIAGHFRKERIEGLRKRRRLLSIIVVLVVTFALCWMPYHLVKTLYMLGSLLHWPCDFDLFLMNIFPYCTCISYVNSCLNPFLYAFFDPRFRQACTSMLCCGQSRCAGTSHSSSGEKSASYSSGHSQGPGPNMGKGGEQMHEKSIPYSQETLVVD
# Assay: Determination of agonism on the human apelin receptor by a calcium fluorescence assay (FLIPR)
# Assay type: cell-based
# Conditions: HEK293 cells stably transfected with human apelin receptor and Giaq protein, Fluo-4 calcium fluorescence, read-out: EC50 (APJ agonism)
# In short: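 HEK293 cells stably co-expressing human apelin receptor and promiscuous Giaq, loaded 1 h at 37 °C with Fluo-4 (4 μM) in probenecid-containing Hepes buffer, pH 7.4. Compounds, at least 7 concentrations in triplicate, added in FLIPR Tetra; peak calcium fluorescence normalized to 1 μM apelin-13 as 100% to derive EC50.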
row,SMILES,EC50 [nM]
1,"CC[C@H](C)[C@@H](CC(=O)O)NC(=O)c1ccc2c(c1)nc(Cc1cccs1)n2[C@@H]1CCCC[C@H]1C [Example 53, (3R,4S)-4-Methyl-3-{[1-((1R,2R)-2-methyl-cyclohexyl)-2-thiophen-2-ylmethyl-1H-benzoimidazole-5-carbonyl]-amino}-hexanoic acid]",48
2,"CCCCC(CC(=O)O)NC(=O)c1ccc2c(c1)nc(Cc1cccs1)n2[C@@H]1CCCC[C@H]1C (stereo partly drawn) [Example 56, 3-{[1-((1R,2R)-2-Methyl-cyclohexyl)-2-thiophen-2-ylmethyl-1H-benzoimidazole-5-carbonyl]-amino}-heptanoic acid]",157
3,"CCCCC(NC(=O)c1ccc2c(c1)nc(Cc1cccs1)n2C(CC)CC)C(C)(C)C(=O)O (stereo not shown) [Example 58, 3-{[1-(1-Ethyl-propyl)-2-thiophen-2-ylmethyl-1H-benzoimidazole-5-carbonyl]-amino}-2,2-dimethyl-heptanoic acid]",172
4,"CCC(CC)C(CC(=O)O)NC(=O)c1ccc2c(c1)nc(Cc1cccs1)n2C(CC)CC (stereo not shown) [Example 59, 4-Ethyl-3-{[1-(1-ethyl-propyl)-2-thiophen-2-ylmethyl-1H-benzoimidazole-5-carbonyl]-amino}-hexanoic acid]",576
5,"C[C@@H]1CCCC[C@H]1n1c(Cc2cccs2)nc2cc(C(=O)N[C@H](CC(=O)O)CC3CCCC3)ccc21 [Example 61, (S)-4-Cyclopentyl-3-{[1-((1R,2R)-2-methyl-cyclohexyl)-2-thiophen-2-ylmethyl-1H-benzoimidazole-5-carbonyl]-amino}-butyric acid]",75
6,"CCC(CC)n1c(Cc2cccs2)nc2cc(C(=O)NC(CC(C)C)C(C)(C)C(=O)O)ccc21 (stereo not shown) [Example 62, 3-{[1-(1-Ethyl-propyl)-2-thiophen-2-ylmethyl-1H-benzoimidazole-5-carbonyl]-amino}-2,2,5-trimethyl-hexanoic acid]",193
7,"CCCC(NC(=O)c1ccc2c(c1)nc(Cc1cccs1)n2C(CC)CC)C(C)(C)C(=O)O (stereo not shown) [Example 63, 3-{[1-(1-Ethyl-propyl)-2-thiophen-2-ylmethyl-1H-benzoimidazole-5-carbonyl]-amino}-2,2-dimethyl-hexanoic acid]",343
8,"C[C@@H]1CCCC[C@H]1n1c(Cc2cccs2)nc2cc(C(=O)NC3(CC(=O)O)CCCCC3)ccc21 [Example 66, (1-{[1-((1R,2R)-2-Methyl-cyclohexyl)-2-thiophen-2-ylmethyl-1H-benzoimidazole-5-carbonyl]-amino}-cyclohexyl)-acetic acid]",87
9,"CCC(CC)n1c(Cc2cccs2)nc2cc(C(=O)N[C@@H](CC(C)C)[C@@H](O)C(=O)O)ccc21 [Example 67, (2R,3S)-3-{[1-(1-Ethyl-propyl)-2-thiophen-2-ylmethyl-1H-benzoimidazole-5-carbonyl]-amino}-2-hydroxy-5-methyl-hexanoic acid]",79
10,"CCC(CC)n1c(Cc2cccs2)nc2cc(C(=O)N[C@@H](CC(C)C)[C@H](O)C(=O)O)ccc21 [Example 68, (2S,3S)-3-{[1-(1-Ethyl-propyl)-2-thiophen-2-ylmethyl-1H-benzoimidazole-5-carbonyl]-amino}-2-hydroxy-5-methyl-hexanoic acid]",18
11,"CC(C)C[C@@H](CCC(=O)O)NC(=O)c1ccc2c(c1)nc(Cc1cccs1)n2C1CCCCC1C(F)(F)F (stereo partly drawn) [Example 69, (R)-6-Methyl-4-{[2-thiophen-2-ylmethyl-1-(2-trifluoromethyl-cyclohexyl)-1H-benzoimidazole-5-carbonyl]-amino}-heptanoic acid]",339
12,"CC(C)C[C@@H](CCC(=O)O)NC(=O)c1ccc2c(c1)nc(Cc1cccs1)n2[C@@H]1CCCC[C@H]1C [Example 70, (R)-6-Methyl-4-{[1-((1R,2R)-2-methyl-cyclohexyl)-2-thiophen-2-ylmethyl-1H-benzoimidazole-5-carbonyl]-amino}-heptanoic acid]",179
13,"CCC(CC)n1c(Cc2cccs2)nc2cc(C(=O)N[C@H](CCC(=O)O)[C@@H](C)CC)ccc21 [Example 71, (4R,5S)-4-{[1-(1-Ethyl-propyl)-2-thiophen-2-ylmethyl-1H-benzoimidazole-5-carbonyl]-amino}-5-methyl-heptanoic acid]",73
14,"CC[C@H](C)[C@@H](CCC(=O)O)NC(=O)c1ccc2c(c1)nc(Cc1cccs1)n2[C@@H]1CCCC[C@H]1C [Example 72, (4R,5S)-5-Methyl-4-{[1-((1R,2R)-2-methyl-cyclohexyl)-2-thiophen-2-ylmethyl-1H-benzoimidazole-5-carbonyl]-amino}-heptanoic acid]",47
15,"CCC(CC)n1c(Cc2cccs2)nc2cc(C(=O)N[C@@H](CC3CCCCC3)[C@H](O)CC(=O)O)ccc21 [Example 73, (3R,4S)-5-Cyclohexyl-4-{[1-(1-ethyl-propyl)-2-thiophen-2-ylmethyl-1H-benzoimidazole-5-carbonyl]-amino}-3-hydroxy-pentanoic acid]",65
16,"C[C@@H]1CCCC[C@H]1n1c(Cc2cccs2)nc2cc(C(=O)N[C@@H](CC3CCCCC3)[C@H](O)CC(=O)O)ccc21 [Example 74, (3R,4S)-5-Cyclohexyl-3-hydroxy-4-{[1-((1R,2R)-2-methyl-cyclohexyl)-2-thiophen-2-ylmethyl-1H-benzoimidazole-5-carbonyl]-amino}-pentanoic acid]",140
17,"CCC(CC)n1c(Cc2cccs2)nc2cc(C(=O)N[C@@H](CC(C)C)[C@@H](O)CC(=O)O)ccc21 [Example 75, (3S,4S)-4-{[1-(1-Ethyl-propyl)-2-thiophen-2-ylmethyl-1H-benzoimidazole-5-carbonyl]-amino}-3-hydroxy-6-methyl-heptanoic acid]",66
18,"CC(C)C[C@H](NC(=O)c1ccc2c(c1)nc(Cc1cccs1)n2[C@@H]1CCCC[C@H]1C)[C@H](O)CC(=O)O [Example 77, (3R,4S)-3-Hydroxy-6-methyl-4-{[1-((1R,2R)-2-methyl-cyclohexyl)-2-thiophen-2-ylmethyl-1H-benzoimidazole-5-carbonyl]-amino}-heptanoic acid]",53

# Further lines, results first:
row,EC50 [nM],SMILES
1,12300,"C[C@H]1CCCC[C@@H]1n1c(Cc2cccs2)nc2cc(C(=O)NC(CC(=O)O)CC3CCCCC3)ccc21 (stereo partly drawn) [Example 52, 4-Cyclohexyl-3-{[1-((1S,2S)-2-methyl-cyclohexyl)-2-thiophen-2-ylmethyl-1H-benzoimidazole-5-carbonyl]-amino}-butyric acid]"
2,115,"CCC(CC)n1c(Cc2cccs2)nc2cc(C(=O)N[C@H](CC(=O)O)[C@@H](C)CC)ccc21 [Example 54, (3R,4S)-3-{[1-(1-Ethyl-propyl)-2-thiophen-2-ylmethyl-1H-benzoimidazole-5-carbonyl]-amino}-4-methyl-hexanoic acid]"
3,196,"CCCC(CC(=O)O)NC(=O)c1ccc2c(c1)nc(Cc1cccs1)n2[C@@H]1CCCC[C@H]1C (stereo partly drawn) [Example 55, 3-{[1-((1R,2R)-2-Methyl-cyclohexyl)-2-thiophen-2-ylmethyl-1H-benzoimidazole-5-carbonyl]-amino}-hexanoic acid]"
4,475,"C[C@@H]1CCCC[C@H]1n1c(Cc2cccs2)nc2cc(C(=O)NC(CC(=O)O)C3CCCCC3)ccc21 (stereo partly drawn) [Example 57, 3-Cyclohexyl-3-{[1-((1R,2R)-2-methyl-cyclohexyl)-2-thiophen-2-ylmethyl-1H-benzoimidazole-5-carbonyl]-amino}-propionic acid]"
5,46,"CCC(CC)n1c(Cc2cccs2)nc2cc(C(=O)N[C@H](CC(=O)O)CC3CCCC3)ccc21 [Example 60, (S)-4-Cyclopentyl-3-{[1-(1-ethyl-propyl)-2-thiophen-2-ylmethyl-1H-benzoimidazole-5-carbonyl]-amino}-butyric acid]"
6,176,"CCC(CC)n1c(Cc2cccs2)nc2cc(C(=O)NC3(CC(=O)O)CCCCC3)ccc21 [Example 64, (1-{[1-(1-Ethyl-propyl)-2-thiophen-2-ylmethyl-1H-benzoimidazole-5-carbonyl]-amino}-cyclohexyl)-acetic acid]"
7,56,"C[C@@H]1CCCC[C@H]1n1c(Cc2cncs2)nc2cc(C(=O)NC(CC(=O)O)CC3CCCCC3)ccc21 (stereo partly drawn) [Example 65, 4-Cyclohexyl-3-{[1-((1R,2R)-2-methyl-cyclohexyl)-2-thiazol-5-ylmethyl-1H-benzoimidazole-5-carbonyl]-amino}-butyric acid]"
8,62,"CCC(CC)n1c(Cc2cccs2)nc2cc(C(=O)N[C@@H](CC(C)C)[C@H](O)CC(=O)O)ccc21 [Example 76, (3R,4S)-4-{[1-(1-Ethyl-propyl)-2-thiophen-2-ylmethyl-1H-benzoimidazole-5-carbonyl]-amino}-3-hydroxy-6-methyl-heptanoic acid]"
9,101,"CC(C)C[C@H](NC(=O)c1ccc2c(c1)nc(Cc1cccs1)n2[C@@H]1CCCC[C@H]1C)[C@@H](O)CC(=O)O [Example 78, (3S,4S)-3-Hydroxy-6-methyl-4-{[1-((1R,2R)-2-methyl-cyclohexyl)-2-thiophen-2-ylmethyl-1H-benzoimidazole-5-carbonyl]-amino}-heptanoic acid]"
10,80,"CCC(CC)n1c(Cc2cccs2)nc2cc(C(=O)N[C@@H](CC3CCCCC3)[C@@H](O)CC(=O)O)ccc21 [Example 79, (3S,4S)-5-Cyclohexyl-4-{[1-(1-ethyl-propyl)-2-thiophen-2-ylmethyl-1H-benzoimidazole-5-carbonyl]-amino}-3-hydroxy-pentanoic acid]"
